Like-named read-outs stand apart in the source and are kept apart here.
Tests used:
[1] = test system: doxorubicin-resistant K562 (K562/R) cell line; assay: MTT cytotoxicity assay, doxorubicin-resistant K562; assay type: cell-based, human; conditions: read-out: Cytotoxicity IC50 against K562/R
Method: MTT assay was performed using a reported method. […] Absorbance of untreated controls was taken as 100%. […] An aliquot of the supernatant was analyzed by HPLC.

[2] = test system: human cytochrome P-450 enzymes (1A2, 2A6, 2D6, 2E1, 3A4); assay: CYP inhibition in human liver microsomes, five isoforms other than CYP2C9; assay type: in vitro ADME; conditions: probe reactions
[3] = test system: human leukemia K562 (K562/S) cell line; assay: MTT cytotoxicity assay, doxorubicin-sensitive K562
Method: Both doxorubicin-resistant (K562/R) and -sensitive K562 (K562/S) cell sublines, purchased from Tianjin Instute of Hematopathy, the Chinese Academy of Medical Sciences, China, were cultured in PRMI1640 (Gibco, USA) medium and supplemented with 10 fetal bovine serums at 37° C. in a humidified incubator with 5% CO2. MTT assay was performed using a reported method [12]. Cell lines were seeded into 96-well plates at 6000 viable cells per well. The test chemicals (ADR, DMSO, Th1 and Th2) with different concentrations were loaded in a final volume of 200 μL per well. After 44 hours of incubation, MTT (5 g/L) was added to each well in a volume of 10 μl and incubated for 4 hours. Afterwards, the medium was removed and 200 μl of Me2SO (37° C.) was added and shaken for 5 minutes. A 96-well microtiter plate reader was used to determine absorbance values at 570 nm. Mean value of each concentration (n=3 wells) was obtained. Absorbance of untreated controls was taken as 100%. Survival rate was calculated as follows: Cell survival rate (%)=(T−B)/(U−B)×100%, T (treated) is absorbance of chemically treated cells, U (untreated) is the absorbance of untreated cells, and B (blank) is the absorbance when neither cells nor chemicals was added.

[4] = test system: human leukemia K562 (K562/S) cell line; assay: SRB cytotoxicity assay, K562/S; conditions: K562, read-out: Cytotoxicity IC50 against K562/S
Method: (§1) Cytotoxicity Assay: Both epimers were tested for their cytotoxicities against human leukemia K562 (K562/S) and doxorubicin-resistant K562 (K562/R) cell lines, using the SRB method previously described with doxorubicin being the positive control. The OD data were recorded in X±S, and the IC50 values were calculated with sigmoidal plot.

[5] = test system: doxorubicin-resistant K562 (K562/R) cell line; assay: SRB cytotoxicity assay, doxorubicin-resistant K562; conditions: Homo sapiens, K-562R, read-out: Cytotoxicity IC50 against K562/R
Method: as §1

[6] = test system: human leukemia K562 (K562/S) cell line
Method: as §1

[7] = test system: doxorubicin-resistant K562 (K562/R) cell line
Method: as §1

CYP2C9 = biological target: T1, CYP2C9 (Homo sapiens, UniProt P11712); assay type: in vitro ADME; conditions: microsomes
T1 construct: HLM were prepared from liver tissue as described in the literature [13]; from tissue; host or cells: human liver microsomes prepared from an autopsy liver sample (person)

[8] = Homo sapiens, K562, read-out: Cytotoxicity IC50 against K562/S

T1 sequence (P11712 whole entry): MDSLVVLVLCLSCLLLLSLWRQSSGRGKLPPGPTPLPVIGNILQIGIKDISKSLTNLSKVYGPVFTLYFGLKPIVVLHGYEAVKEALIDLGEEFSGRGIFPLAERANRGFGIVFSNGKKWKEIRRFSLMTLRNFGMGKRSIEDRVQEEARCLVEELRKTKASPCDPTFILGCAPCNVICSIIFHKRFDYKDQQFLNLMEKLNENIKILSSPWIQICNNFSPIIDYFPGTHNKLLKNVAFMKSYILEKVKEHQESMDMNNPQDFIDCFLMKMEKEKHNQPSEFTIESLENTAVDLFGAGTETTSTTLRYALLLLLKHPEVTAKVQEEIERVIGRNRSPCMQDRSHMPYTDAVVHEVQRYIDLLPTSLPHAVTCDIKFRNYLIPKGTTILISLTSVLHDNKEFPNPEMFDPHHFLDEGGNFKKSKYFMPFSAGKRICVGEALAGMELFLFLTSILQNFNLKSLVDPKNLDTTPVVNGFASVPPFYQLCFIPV

IC50 [6] [nM]	IC50 [7] [nM]	Compound	Inhibitory effect toward five human cytochrome P-450 enzymes other than CYP2C9 [2]	IC50 [3, 8] [nM]	further results
–	–	CC(C)=CCC[C@]1(C)C=Cc2c(O)c3c(c(CC=C(C)C)c2O1)O[C@]12C(=C[C@@H]4C[C@H]1C(C)(C)O[C@@]2(C/C=C(/C)C(=O)O)C4=O)C3=O (single isomer, unassigned) [Epimer 1, gambogic acid]	little inhibitory effects	890	IC50 ([1]; Homo sapiens, K-562R): 1320 nM
–	–	COc1cccc2c1C(=O)c1c(O)c3c(c(O)c1C2=O)C[C@@](O)(C(=O)CO)C[C@@H]3O[C@H]1C[C@H](N)[C@H](O)[C@H](C)O1 [Doxorubicin, doxorubicin, reference compound]	–	660	IC50 [4]: 110 ± 10 nM; IC50 [5]: 1790 ± 170 nM; IC50 ([1]; Homo sapiens, K-562R, doxorubicin-resistant K562/R, Example 1 MTT assay, Table 4 columns marked ^a): 10800 nM
3610 ± 170	4490 ± 310	30-hydroxyepigambogic acid [compound 2]	–	–	–
1270 ± 150	2890 ± 350	30-hydroxygambogic acid [compound 1]	–	–	–
–	–	CC(C)=CCCC1(C)C=Cc2c(O)c3c(c(CC=C(C)C)c2O1)OC12C(=CC4CC1C(C)(C)OC2(CC=C(C)C(=O)O)C4=O)C3=O (single isomer, unassigned; epimer 2) [Epimer 2, epigambogic acid]	little inhibitory effects	–	CYP2C9 inhibitory effect, S-epimer relative to R-epimer (CYP2C9): 20 folds; IC50 ([1]; doxorubicin-resistant K562/R, Example 1 MTT assay, Table 4 columns marked ^a): 1110 nM; IC50 ([3]; read-out: Cytotoxicity IC50 against K562/S, K562/S, Example 1 MTT assay, Table 4 columns marked ^a): 860 nM

From US7592367B2, “Compounds from Garcinia hanburyi, their use in treating cancer and method of separating epimers thereof” (priority 2005, dated 2009)
